# “Also recorded” adds a separate entry of the source.
# Key:
# [1] = tested on: RAW264.7 macrophages; test: Engulfment of supported lipid bilayer-coated silica beads by macrophages (confocal quantification); format: cell-based; conditions: for engulfment of IgG-coated beads in the absence of CD47: manganese treatment, IgG titration
# Description: 8.6×10^8 silica beads with a 5.02 μm diameter (10 μl of 10% solids, Bangs Labs, Catalog #SS05N) were washed three times with PBS, mixed with 1 mM SUVs in PBS and incubated at room temperature for 0.5-2 hours with end-over-end mixing to allow for bilayer formation. Beads were then washed three times with PBS to remove excess SUVs and incubated in 100 μl of 0.2% casein (Sigma, catalog #C5890) in PBS for 15 min before protein coupling. […] Purified CD47^ext-His10 was added at […]. Proteins were coupled to the bilayer for 1 hour at room temperature with end-over-end mixing.
# Unless otherwise noted, macrophages remained in culture media (DMEM with 10% heat inactivated serum) throughout the experiment. ˜8×10^5 beads were added to well and engulfment was allowed to proceed for 30 min. Cells were fixed with 4% PFA and stained with CellMask (ThermoFisher, catalog #C10045) without membrane permeabilization to label cell boundaries.
# [2] = tested on: complement-opsonized CD47+ mouse red blood cells; conditions: 1 mM manganese
# Description: For the mouse red blood cell internalization assay, 30,000 RAW264.7 macrophages (ATCC) were plated in one well of a 96-well glass bottom MatriPlate (Brooks, MGB096-1-2-LG-L) between 12 and 24 hours prior to the experiment. Mouse red blood cells (RBCs) (Innovative Research, 88R-M001) were washed into PBS and stained with CSFE (Thermo Fisher, C34554) or Alexa Fluor 488 NHS Ester (ThermoFisher, A20000) for 1 hr at room temperature. RBCs were then opsonized with C3bi as previously described (Chow et al., 2004). Briefly, RBCs were incubated with anti-mouse IgM (MyBioSource, MBS524107) for 1 hour at 37° C. A portion of RBCs were separated for IgM controls, and the remaining RBCs were incubated with C5 deficient serum (Sigma-Aldrich, C1163) for 1 hour at 37° C. Macrophages were washed into serum-free HEPES imaging buffer and incubated with 150 ng/mL PMA and 1 mM Manganese or water. ˜1×10^6 RBCs were added to each well and engulfment was allowed to proceed for 1 hour in incubator. Cells were washed with PBS, unengulfed RBCs were lysed with water for 2 min, and cells were fixed with 4% PFA. Remaining non-lysed, non-engulfed RBCs were stained with APC anti-iC3b antibody (Biolegend, 1:200 dilution, 846106) for 30 minutes. Macrophages were stained with CellMask orange (ThermoFisher, 1:5,000 dilution) and Hoechst (Invitrogen, H3570, 1:1,000 dilution) for 15 minutes. […]
# [3] = tested on: L1210 murine leukemia cells; test: Whole cell internalization assay, 8 hr timelapse imaging; format: cell-based, mouse; conditions: 100 μM manganese, bone marrow derived macrophages
# Description: For timelapse imaging, 30,000 primary bone marrow derived macrophages infected with GFP-CAAX were plated in a 96-well glass bottom MatriPlate (Brooks, Catalog #MGB096-1-2-LG-L). 2 hours prior to imaging, cells were washed into serum-free, phenol free DMEM for imaging. Manganese (SigmaAldrich, M8054) was added at 100 μM 30 min prior to imaging. When indicated, CD47 function-blocking antibody clone miap301 (Biolegend, 127520) was used at […]. 100,000 H2B-mCherry expressing L1210 cells were added and the co-culture was imaged for 8 hr.
smiles,measurement,setting,value
"[Mn+2] [manganese, Manganese]",engulfment of IgG beads with versus without CD47,"[1]; macrophages treated with 1 mM manganese, beads with IgG and CD47 or non-signaling CD47 F37D,T115K",engulfed beads with a similar efficiency whether or not CD47 was conjugated to the supported lipid bilayer
same,engulfment of IgG-coated beads in the absence of CD47,[1],did not trigger bead engulfment on its own or dramatically enhance engulfment of IgG-coated beads in the absence of CD47
same,engulfment of IgG-coated beads in the absence of CD47,[1]; listed as Mn2+,did not dramatically enhance engulfment
same,bead engulfment triggered on its own,"[1]; manganese, no IgG",did not trigger bead engulfment on its own
same,engulfment of control IgM-treated RBCs,[2],not control IgM-treated RBCs
same,engulfment of complement-opsonized RBCs,"[2]; RAW264.7 macrophages, 1 hour",dramatically increased engulfment of complement-opsonized RBCs
same,macrophages engulfing a cancer cell,[3],increased the ability of macrophages to engulf cancer cells; also recorded: allowed for engulfment of whole cancer cells; also recorded: can drive engulfment of whole cancer cells
